{"source": "paper PMC2662877", "about": "“A novel method for screening the glutathione transferase inhibitors” (BMC Biochemistry, 2009)", "key": {"GST [1]": {"molecular_target": "T1, GST (Schistosoma japonicum, UniProt P08515)", "T1 construct": "purchased Sigma-Aldrich", "T1 sequence (P08515 whole entry)": "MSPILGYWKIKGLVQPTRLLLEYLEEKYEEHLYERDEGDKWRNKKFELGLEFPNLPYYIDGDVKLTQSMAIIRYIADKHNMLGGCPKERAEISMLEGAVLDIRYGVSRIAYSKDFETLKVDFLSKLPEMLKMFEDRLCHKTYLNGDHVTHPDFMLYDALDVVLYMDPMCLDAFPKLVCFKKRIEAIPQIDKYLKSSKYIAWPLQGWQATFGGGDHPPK", "test": "biochemical", "type": "biochemical", "details": "inhibitor 1 μM, DCNB 1 mM, glutathione 1 mM, 25°C; for Specific GST activity: mean ± SD of triplicate, control 4.51 ± 0.02"}, "GST [2]": {"molecular_target": "T1, GST", "test": "biochemical", "type": "biochemical", "details": "for Specific GST activity: mean ± SD of triplicate, control 2.80 ± 0.01; for order of inhibition efficiencies: with the use of CDNB or DCNB as the substrates, inhibitors 1 μM; for inhibition of GST activity, in words: control peptides, CDNB or DCNB as substrates", "protocol": "Figure 3 Effects of F1 and F2 peptides on the activity of GST (μmol/mg/min). The activity was measured by monitoring the GST activity with different peptide concentrations, 1 mM glutathione (GSH) and 1 mM CDNB in 100 mM potassium phosphate buffer (pH6.5) at 25°C.\n(§1) The peptide concentration resulting in 50% inhibition (IC50) was determined from a plot of remaining activity versus peptide concentration. Protein concentration was measured according to the Lowry method. Enzyme inhibitory kinetic studies were carried out using various concentrations of glutathione and CDNB and different concentrations of synthetic peptides (0.8, 1.6, 3.2 μM)."}, "GST [3]": {"system": "GST", "details": "first-generation GST inhibitors; no reference given; cited from earlier work", "excerpt": "(§2) The development of resistance to anticancer agents is a primary concern in cancer chemotherapy."}, "[4]": {"system": "cancer cell lines with increased GST expression", "details": "ref [25]; cited from earlier work", "excerpt": "as §2"}, "[5]": {"test": "binding of synthesized peptides to glutathione Sepharose 4B beads", "details": "for binding to glutathione Sepharose 4B beads, in words: control peptides lacking glutathione-interacting residues", "protocol": "The binding characteristics of selected peptides to glutathione were determined according to the analysis of binding of synthesized peptides to the glutathione Sepharose 4B beads. The amount of glutathione in the glutathione Sepharose 4B beads was estimated according to the assumption (according to the manufacturere's information) that there are about 200–400 μmol glutathione/g dried beads. An average value of 300 μmol glutathione/g dried beads was used to calculate the amount of glutathione in the glutathione Sepharose 4B beads. In our experiments, appropriate amount of wet glutathione Sepharose 4B beads (equal to 1 mg dry beads) was added to a 1.5 ml Eppendorf tube, and different amounts of synthesized peptides were added into the tube. After binding for 10 min at 37°C, the binding complexes were separated by centrifugation (12,000 × g for 10 min) and concentrations of bound and free peptides were determined by using the Lowry method. Scatchard analysis was used to determine the Kd and Bmax values. Bmax means the maximum binding sites of synthesized peptide on glutathione Speharose 4B beads (μmol peptide/μmol glutathione). Kd is a dissociation constant (pM). Thus, a low Kd value indicates a high affinity."}, "GST [6]": {"molecular_target": "T1, GST", "test": "biochemical", "type": "biochemical", "details": "for effect on Vmax and Km, in words: changing glutathione and peptide concentrations", "protocol": "To obtain information on the nature of the inhibition by F1 and F2 peptides, GST activity was measured with variable concentrations of glutathione. Here, we applied a new model in describing enzyme inhibitor (Fig. 4).\nThe Lineweaver-Burk plot for glutathione as the variable peptide concentration was applied to determine the types of inhibition caused by F1 and F2 peptides. The plot provides a useful graphical method for analysis of the Michaelis-Menten equation. The effects of the peptide on GST-catalyzed reaction kinetics were determined by analysis of apparent Vmax, inhibitor constant Ki and [I]/Ki values.\nFigure 5 Lineweaver-Burk plot of the GST activity with varying glutathione (GSH) concentrations. A): The activity was measured with 1 mM CDNB, and different concentrations of GSH, and the F1 peptide. B): The activity was measured with 1 mM CDNB, and different concentrations of GSH, and the F2 peptide.\nas §1"}, "[7]": {"details": "control 100%, % sign missing in F1 cell"}, "[8]": {"details": "inhibitor 1 μM, CDNB 1 mM, glutathione 1 mM, 25°C, control 100%"}, "[9]": {"details": "inhibitor 1 μM, CDNB 1 mM, glutathione 1 mM, 25°C"}, "[10]": {"details": "after elution with elution buffer"}, "[11]": {"details": "before elution, ratio of peptide concentrations after and before binding"}}, "note": "No end group written: not given here.", "data": [{"molecule": "Nc1c(S(=O)(=O)O)cc(Nc2ccc(Nc3nc(Cl)nc(Nc4ccccc4S(=O)(=O)O)n3)c(S(=O)(=O)O)c2)c2c1C(=O)c1ccccc1C2=O", "note": "[cibacron blue]", "values": [{"measurement": "remaining activity at 1 µM", "setting": "GST [1]; [7]", "value": 21.3, "unit": "%"}, {"measurement": "Specific GST activity", "setting": "GST [1]", "value": "0.96 ± 0.01", "unit": "units/mg"}, {"measurement": "remaining activity at 1 µM", "setting": "GST [2]; [8]", "value": 18.3, "unit": "%"}, {"measurement": "Specific GST activity", "setting": "GST [2]; [9]", "value": "0.51 ± 0.01", "unit": "units/mg"}, {"measurement": "order of inhibition efficiencies", "setting": "GST [2]", "value": "tannic acid > cibacron blue > F2 peptide > hematin > F1 peptide > ethacrynic acid"}]}, {"molecule": "C=C(CC)C(=O)c1ccc(OCC(=O)O)c(Cl)c1Cl", "note": "[ethacrynic acid]", "values": [{"measurement": "Specific GST activity", "setting": "GST [1]", "value": "3.66 ± 0.02", "unit": "units/mg"}, {"measurement": "outcome in clinical trials", "setting": "GST [3]", "value": "unsuccessful in clinical trials"}, {"measurement": "Specific GST activity", "setting": "GST [2]; [9]", "value": "1.54 ± 0.01", "unit": "units/mg"}]}, {"molecule": "C=CC1=C(C)c2cc3[n-]c(cc4[n-]c(cc5nc(cc1n2)C(C)=C5C=C)c(C)c4CCC(=O)O)c(CCC(=O)O)c3C.O.[Fe+2]", "note": "[hematin]", "values": [{"measurement": "GST activity remaining, % of control", "setting": "GST [1]; [7]", "value": 42.1, "unit": "%"}, {"measurement": "Specific GST activity", "setting": "GST [1]", "value": "1.90 ± 0.02", "unit": "units/mg"}, {"measurement": "GST activity remaining, % of control", "setting": "GST [2]; [8]", "value": 35.2, "unit": "%"}, {"measurement": "Specific GST activity", "setting": "GST [2]; [9]", "value": "0.99 ± 0.01", "unit": "units/mg"}, {"measurement": "order of inhibition efficiencies", "setting": "GST [2]", "value": "tannic acid > cibacron blue > F2 peptide > hematin > F1 peptide > ethacrynic acid"}]}, {"molecule": "C=C[C@H]1C[N@@]2CC[C@H]1C[C@H]2[C@H](O)c1ccnc2ccc(OC)cc12", "note": "[quinine]", "values": [{"measurement": "reversal of resistance to melphalan and doxorubicin", "setting": "[4]", "value": "reported to reverse the resistance to melphalan and doxorubicin"}]}, {"molecule": "GKIKGV [F3 peptide, control peptide F3, lacking Tyr6, Trp7 and Leu12]", "values": [{"measurement": "inhibition of GST activity, in words", "setting": "GST [2]", "value": "could not find any significant inhibition of the GST activity"}, {"measurement": "Binding efficiency", "setting": "[5]; [10]", "value": 1.2, "unit": "%"}, {"measurement": "Binding efficiency", "setting": "[5]; [11]", "value": 1.2, "unit": "%"}, {"measurement": "binding to glutathione Sepharose 4B beads, in words", "setting": "[5]", "value": "could not bind efficiently"}]}, {"molecule": "GYWKIKGLV [F1 peptide]", "values": [{"measurement": "Ki", "setting": "GST [6]; F1 peptide 0.8 μM, noncompetitive", "value": 4000, "unit": "nM"}, {"measurement": "Ki", "setting": "GST [6]; F1 peptide 1.6 μM, noncompetitive", "value": 4570, "unit": "nM"}, {"measurement": "Ki", "setting": "GST [6]; F1 peptide 3.2 μM, noncompetitive", "value": 5820, "unit": "nM"}, {"measurement": "effect on Vmax and Km, in words", "setting": "GST [6]", "value": "Vmax decreased while Km remained unchanged"}, {"measurement": "IC50", "setting": "GST [2]", "value": 800, "unit": "nM"}]}, {"molecule": "KWNKFELGLEFPL [F4 peptide, control peptide F4, lacking Arg41, Lys44 and Asn53 residues]", "values": [{"measurement": "inhibition of GST activity, in words", "setting": "GST [2]", "value": "could not find any significant inhibition of the GST activity"}, {"measurement": "Binding efficiency", "setting": "[5]; [10]", "value": 2.5, "unit": "%"}, {"measurement": "Binding efficiency", "setting": "[5]; [11]", "value": 2.6, "unit": "%"}, {"measurement": "binding to glutathione Sepharose 4B beads, in words", "setting": "[5]", "value": "could not bind efficiently"}]}, {"molecule": "KWRNKKFELGLEFPNL [F2 peptide]", "values": [{"measurement": "Ki", "setting": "GST [6]; F2 peptide 0.8 μM, competitive", "value": 1530, "unit": "nM"}, {"measurement": "Ki", "setting": "GST [6]; F2 peptide 1.6 μM, competitive", "value": 1600, "unit": "nM"}, {"measurement": "Ki", "setting": "GST [6]; F2 peptide 3.2 μM, competitive", "value": 2420, "unit": "nM"}, {"measurement": "effect on Vmax and Km, in words", "setting": "GST [6]", "value": "Km decreased while Vmax remained unchanged"}, {"measurement": "IC50", "setting": "GST [2]", "value": 600, "unit": "nM"}]}, {"molecule": "tannic acid", "values": [{"measurement": "GST activity remaining, % of control", "setting": "GST [1]; [7]", "value": 10.9, "unit": "%"}, {"measurement": "Specific GST activity", "setting": "GST [1]", "value": "0.49 ± 0.01", "unit": "units/mg"}, {"measurement": "GST activity remaining, % of control", "setting": "GST [2]; [8]", "value": 5.6, "unit": "%"}, {"measurement": "Specific GST activity", "setting": "GST [2]; [9]", "value": "0.16 ± 0.01", "unit": "units/mg"}, {"measurement": "order of inhibition efficiencies", "setting": "GST [2]", "value": "tannic acid > cibacron blue > F2 peptide > hematin > F1 peptide > ethacrynic acid"}]}]}
